How the values were obtained:
[1] = system: PBMCs from T1D patients (CD25+ CD71+ CTVmid CD4+ T-cells); test: FAIM assay with PBMCs from T1D patients; format: cell-based, human; conditions: 34/38 T1D patients
Excerpt: FIG. 7. GAD65 P10Sol response rate in T1D patients. (A) T1D PBMCs were screened using the FAIM assay for responsiveness to GAD65 P10 30-mer and GAD65 P10Sol with paired ^3H-thymidine samples were acquired for each condition. A positive response for FAIM assay required a proliferating CD25^+ CD71^+ CD4 T-cell count >25 and the population SI to be ≥2× the negative control. A positive response for the ^3H-thymidine assay required raw counts >1000 and a SI of ≥3× the negative control. […] The scale for both heat maps is Log 2 (stimulation index (SI)). […] (B) Agreement analysis for the outcomes of the flow cytometric and ^3H-thymidine proliferation readouts of the FAIM assay. (C) Paired analysis of stimulation indexes from FAIM^+ and ^3H-thymidine readouts, wilcoxon matched-pairs sign rank test.
Soluble candidate peptide GAD65 P10Sol (SEQ ID NO 23) was used as a representative peptide and tested for induction of tolerance in a suitable HLA-DR transgenic mouse model (FIG. 1A). […] The FAIM assay involves a fluorescent dye-labelled CD4^+ cell enriched culture with a primary flow cytometric readout assessing CD4 T-cell fluorescent dye dilution and cell-surface activation marker expression with optional paired readouts of ^3H-thymidine incorporation and secreted cytokine measurement. […]

HLA-DR4 transgenic mice = test: Peptide immunogenicity in HLA-DR transgenic mice (immunisation); format: in vivo, mouse; conditions: HLA-DR4 transgenic mice (HLA-DRB1*04:01); data not shown
Procedure: (§1) HLA-DR4 transgenic mice were injected subcutaneously with Complete Freund's Adjuvant (CFA) and 100 μg of GAD65 P10 30-mer. After 10 days, splenocytes were isolated and re-stimulated with GAD65 P10 30-mer for a further 4-5 days before fusion with hypoxanthine-aminopterin-thymidine (HAT) sensitive BW5147 cells using polyethylene glycol (PEG). Fused hybridomas were expanded in HAT selection media before antigen-specific screening. Co-cultures of 1×10^5 hybridomas and 2×10^5 Priess cells (an Epstein-Barr Virus (EBV) transformed DR4 (DRB1*04:01) expressing human cell line (ECACC 86052111)) as antigen presenting cells (APCs) were incubated for 48 h in a 96-well plate with peptide, whole GAD65 protein, or media only. Antigen-specific responses were determined by IL-2 secretion into culture supernatant by ELISA assay (BioLegend 431004). Hybridomas that proliferated in response to both GAD65 protein and GAD65 30-mer were single cell cloned by limiting dilution.
Generation of hybridomas that respond to both the GAD65 protein and the P10 30-mer peptide means that these hybridomas can recognise naturally processed peptide presented by APCs—a property shown to be critical for successful peptide immunotherapy design (Anderton et al 2002).

[2] = system: GAD65 P10-specific T-cell hybridomas; test: T-cell hybridoma screen with Priess cells as APCs, IL-2 ELISA; format: cell-based, mouse; conditions: hybridoma multi-clone 6 with HLA-DRB1*04:01 expressing APCs
Procedure: as §1
Six 15-mers that spanned the parent 30-mer amino acid sequence were generated by 3 amino acid shifts from the N-terminus toward the C-terminus.

DAAWGGGLLMSRKHKWKLSGVERANSVTWN [P10 30-mer]
T1D patients responding (FAIM+) [1]: 89% | response to immunisation (HLA-DR4 transgenic mice): responded well | hybridoma IL-2 response [2]: could respond
